Here are results for 20 compounds from BindingDB's records for doi:10.1016/j.bmc.2004.10.042 (Uppsala University, 2005).

pKi: −log10 of the molar value.

For the test, the target named is T1, Dimer of Gag-Pol polyprotein [489-587] (Human immunodeficiency virus 1, UniProt P12497).
T1 construct: 489-587
Put plainly: Enzyme Inhibition Assay. To be noted: pH 5; 30 °C. Here is the method: The effects of the inhibitors on the activity of HIV-1 proteinase was determined by a fluorometric assay with an internally quenched fluorescent peptide substrate. Measurements were performed in 96-well plates with a Fluoroskan plate reader. Excitation and emission wavelengths were 355 and 500 nm, respectively.Data were analyzed by nonlinear regression by using SIMFIT, and an equation for tightly binding inhibitors.
Compound `COc1ccc(-c2ccccc2CN2C[C@H](O)[C@@H](O)CN(Cc3ccccc3-c3ccc(OC)cc3)S2(=O)=O)cc1` [(4S,5S)-4,5-dihydroxy-2,7-bis({[2-(4-methoxyphenyl)phenyl]methyl})-1,2,7-thiadiazepane-1,1-dione] had a negative logarithm of the Ki (pKi) of 5.01.

With `O=S1(=O)N(Cc2ccccc2CCc2ccccc2)C[C@H](O)[C@@H](O)CN1Cc1ccccc1CCc1ccccc1` [(4S,5S)-4,5-dihydroxy-2,7-bis({[2-(2-phenylethyl)phenyl]methyl})-1,2,7-thiadiazepane-1,1-dione], the pKi was 5.52. Compared with the last compound, the pKi is 0.51 log units higher.

Consider `CC(=O)c1ccc(-c2ccccc2CN2C[C@H](O)[C@@H](O)CN(Cc3ccccc3-c3ccc(C(C)=O)cc3)S2(=O)=O)cc1` [(4S,5S)-2,7-bis({[2-(4-acetylphenyl)phenyl]methyl})-4,5-dihydroxy-1,2,7-thiadiazepane-1,1-dione], for which the pKi was 5.28.

`O=S1(=O)N(Cc2ccccc2/C=C/c2ccccc2)C[C@H](O)[C@@H](O)CN1Cc1ccccc1/C=C/c1ccccc1` [(4S,5S)-4,5-dihydroxy-2,7-bis({2-[(E)-2-phenylethenyl]phenyl}methyl)-1,2,7-thiadiazepane-1,1-dione] gave a pKi of 5.70.

As for `O=S1(=O)N(Cc2ccccc2)C[C@H](O)[C@@H](O)CN1Cc1ccccc1` [(4S,5S)-2,7-dibenzyl-4,5-dihydroxy-1,2,7-thiadiazepane-1,1-dione], the pKi was below 4.70.

Regarding `COc1ccccc1-c1ccccc1CN1C[C@H](O)[C@@H](O)CN(Cc2ccccc2-c2ccccc2OC)S1(=O)=O` [(4S,5S)-4,5-dihydroxy-2,7-bis({[2-(2-methoxyphenyl)phenyl]methyl})-1,2,7-thiadiazepane-1,1-dione], the pKi was 5.29.

`O=S1(=O)N(Cc2ccccc2-c2cccc(C(F)(F)F)c2)C[C@H](O)[C@@H](O)CN1Cc1ccccc1-c1cccc(C(F)(F)F)c1` [(4S,5S)-4,5-dihydroxy-2,7-bis({2-[3-(trifluoromethyl)phenyl]phenyl}methyl)-1,2,7-thiadiazepane-1,1-dione]: the pKi is 5.62. Against the preceding compound, the pKi is 0.33 log units higher.

Compound `O=[N+]([O-])c1cccc(-c2ccccc2CN2C[C@H](O)[C@@H](O)CN(Cc3ccccc3-c3cccc([N+](=O)[O-])c3)S2(=O)=O)c1` [(4S,5S)-4,5-dihydroxy-2,7-bis({[2-(3-nitrophenyl)phenyl]methyl})-1,2,7-thiadiazepane-1,1-dione] showed a pKi of 5.13.

`O=S1(=O)N(Cc2ccccc2Cc2ccccc2)C[C@H](O)[C@@H](O)CN1Cc1ccccc1Cc1ccccc1` [(4S,5S)-2,7-bis[(2-benzylphenyl)methyl]-4,5-dihydroxy-1,2,7-thiadiazepane-1,1-dione] showed a pKi of 5.60. This pKi lies 0.47 log units higher than the previous one.

On to `O=S1(=O)N(Cc2ccccc2-c2cc3ccccc3o2)C[C@H](O)[C@@H](O)CN1Cc1ccccc1-c1cc2ccccc2o1` [(4S,5S)-2,7-bis({[2-(1-benzofuran-2-yl)phenyl]methyl})-4,5-dihydroxy-1,2,7-thiadiazepane-1,1-dione], for which the pKi is 6.28. This pKi is 0.68 log units higher than that of the compound before.

In the case of `O=S1(=O)N(Cc2ccccc2-c2ccsc2)C[C@H](O)[C@@H](O)CN1Cc1ccccc1-c1ccsc1` [(4S,5S)-4,5-dihydroxy-2,7-bis({[2-(thiophen-3-yl)phenyl]methyl})-1,2,7-thiadiazepane-1,1-dione], the pKi was 5.57.

`CCCCc1ccc(-c2ccccc2CN2C[C@H](O)[C@@H](O)CN(Cc3ccccc3-c3ccc(CCCC)cc3)S2(=O)=O)cc1` [(4S,5S)-2,7-bis({[2-(4-butylphenyl)phenyl]methyl})-4,5-dihydroxy-1,2,7-thiadiazepane-1,1-dione] gave a pKi of 5.72.

As to `Cc1cccc(-c2ccccc2CN2C[C@H](O)[C@@H](O)CN(Cc3ccccc3-c3cccc(C)c3)S2(=O)=O)c1` [(4S,5S)-4,5-dihydroxy-2,7-bis({[2-(3-methylphenyl)phenyl]methyl})-1,2,7-thiadiazepane-1,1-dione], the pKi is 5.57.

`O=S1(=O)N(Cc2ccccc2-c2ccccc2)C[C@H](O)[C@@H](O)CN1Cc1ccccc1-c1ccccc1` [(4S,5S)-4,5-dihydroxy-2,7-bis[(2-phenylphenyl)methyl]-1,2,7-thiadiazepane-1,1-dione] gave a pKi of 5.60.

In turn, `CCS(=O)(=O)c1ccc(-c2ccccc2CN2C[C@H](O)[C@@H](O)CN(Cc3ccccc3-c3ccc(S(=O)(=O)CC)cc3)S2(=O)=O)cc1` [(4S,5S)-2,7-bis({2-[4-(ethanesulfonyl)phenyl]phenyl}methyl)-4,5-dihydroxy-1,2,7-thiadiazepane-1,1-dione] showed a pKi of 5.28.

Consider `CSc1ccccc1-c1ccccc1CN1C[C@H](O)[C@@H](O)CN(Cc2ccccc2-c2ccccc2SC)S1(=O)=O` [(4S,5S)-4,5-dihydroxy-2,7-bis({2-[2-(methylsulfanyl)phenyl]phenyl}methyl)-1,2,7-thiadiazepane-1,1-dione], for which the negative-log Ki (pKi) was 5.96. This pKi is 0.68 log units higher than that of the compound before.

In the case of `Cc1ccc(-c2ccccc2CN2C[C@H](O)[C@@H](O)CN(Cc3ccccc3-c3ccc(C)cc3)S2(=O)=O)cc1` [(4S,5S)-4,5-dihydroxy-2,7-bis({[2-(4-methylphenyl)phenyl]methyl})-1,2,7-thiadiazepane-1,1-dione], the negative logarithm of the Ki (pKi) is 5.82.

The compound `CC(C)c1cccc(-c2ccccc2CN2C[C@H](O)[C@@H](O)CN(Cc3ccccc3-c3cccc(C(C)C)c3)S2(=O)=O)c1` [(4S,5S)-4,5-dihydroxy-2,7-bis({2-[3-(propan-2-yl)phenyl]phenyl}methyl)-1,2,7-thiadiazepane-1,1-dione] gave a pKi of 5.49.

As to `O=S1(=O)N(Cc2ccccc2-c2ccc(F)cc2)C[C@H](O)[C@@H](O)CN1Cc1ccccc1-c1ccc(F)cc1` [(4S,5S)-2,7-bis({[2-(4-fluorophenyl)phenyl]methyl})-4,5-dihydroxy-1,2,7-thiadiazepane-1,1-dione], the pKi is 5.28. This pKi lies 0.21 log units lower than the previous one.

Regarding `COc1ccc(-c2ccccc2CN2C[C@H](O)[C@@H](O)CN(Cc3ccccc3-c3ccc(OC)c(OC)c3)S2(=O)=O)cc1OC` [(4S,5S)-2,7-bis({[2-(3,4-dimethoxyphenyl)phenyl]methyl})-4,5-dihydroxy-1,2,7-thiadiazepane-1,1-dione], the pKi was 5.03.
